Test results as given in PubChem BioAssay AID2060494 (Molecular Pharmacology Branch, DTP, NCI, 2025).

Tested on: 435261-313-R-J1-PDC complex spheroid viability
Experiment: Anticancer human tumor 435261-313-R-J1-PDC patient-derived colon adenocarcinoma cell line growth inhibition [GQUAD]
Details: for IC50: curve of first compound; for viability, T/C: stronger effect = lower value
Summary of the method: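 Viability of tumor cells grown as complex spheroids with endothelial and stromal cells, exposed to drug combinations. Top concentration at or near clinical Cmax (else 10 microM), diluted in half-log increments.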

[1] = second compound 0.0316 µM, first compound 0.0316 µM
[2] = second compound 0.0316 µM, first compound 0.316 µM
[3] = second compound 0.1 µM, first compound 0.0316 µM
[4] = second compound 0.1 µM, first compound 0.316 µM
[5] = second compound 0.316 µM, first compound 0.0316 µM
[6] = second compound 0.316 µM, first compound 0.316 µM
[7] = second compound 1 µM, first compound 0.0316 µM
[8] = second compound 1 µM, first compound 0.316 µM
[9] = second compound 3.16 µM, first compound 0.0316 µM
[10] = second compound 3.16 µM, first compound 0.316 µM
[11] = second compound 10 µM, first compound 0.0316 µM
[12] = second compound 10 µM, first compound 0.316 µM
[13] = second compound 0.0316 µM, first compound 0.000999 µM
[14] = second compound 0.0316 µM, first compound 0.00316 µM
[15] = second compound 0.0316 µM, first compound 0.00999 µM
[16] = second compound 0.0316 µM, first compound 0.0999 µM
[17] = second compound 0.1 µM, first compound 0.000999 µM
[18] = second compound 0.1 µM, first compound 0.00316 µM
[19] = second compound 0.1 µM, first compound 0.00999 µM
[20] = second compound 0.1 µM, first compound 0.0999 µM
[21] = second compound 0.316 µM, first compound 0.000999 µM
[22] = second compound 0.316 µM, first compound 0.00316 µM
[23] = second compound 0.316 µM, first compound 0.00999 µM
[24] = second compound 0.316 µM, first compound 0.0999 µM
[25] = second compound 1 µM, first compound 0.000999 µM
[26] = second compound 1 µM, first compound 0.00316 µM
[27] = second compound 1 µM, first compound 0.00999 µM
[28] = second compound 1 µM, first compound 0.0999 µM
[29] = second compound 3.16 µM, first compound 0.000999 µM
[30] = second compound 3.16 µM, first compound 0.00316 µM
[31] = second compound 3.16 µM, first compound 0.00999 µM
[32] = second compound 3.16 µM, first compound 0.0999 µM
[33] = second compound 10 µM, first compound 0.000999 µM
[34] = second compound 10 µM, first compound 0.00316 µM
[35] = second compound 10 µM, first compound 0.00999 µM
[36] = second compound 10 µM, first compound 0.0999 µM
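Further: spheroids exposed to the agents for seven days before readout.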
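Wherever viability, T/C is given: percent of vehicle control viability with DMSO wells as 100%.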

COc1ncnc(C2CC2)c1-c1ncc2cnn(Cc3ccc(-c4nc(C(F)(F)F)cn4C(C)C)cc3)c2n1 + Cc1cnc(CNC(=O)c2c(=O)c3ccc(N4CCCN(C)CC4)nc3n3c2sc2ccccc23)cn1
IC50 (second compound 0.0316 µM): > 10000 nM | IC50 (second compound 0.1 µM): > 10000 nM | IC50 (second compound 0.316 µM): < 31.6 nM | IC50 (second compound 1 µM): < 31.6 nM | IC50 (second compound 3.16 µM): < 31.6 nM | IC50 (second compound 10 µM): < 31.6 nM | viability, T/C [1]: 63.8% | viability, T/C (second compound 0.0316 µM, first compound 0.1 µM): 55.6% | viability, T/C [2]: 61.9% | viability, T/C (second compound 0.0316 µM, first compound 1 µM): 55.2% | viability, T/C (second compound 0.0316 µM, first compound 3.16 µM): 65.9% | viability, T/C (second compound 0.0316 µM, first compound 10 µM): 55.6% | viability, T/C [3]: 65.5% | viability, T/C (second compound 0.1 µM, first compound 0.1 µM): 59.7% | viability, T/C [4]: 51.1% | viability, T/C (second compound 0.1 µM, first compound 1 µM): 53.5% | viability, T/C (second compound 0.1 µM, first compound 3.16 µM): 61.9% | viability, T/C (second compound 0.1 µM, first compound 10 µM): 53.8% | viability, T/C [5]: 48.4% | viability, T/C (second compound 0.316 µM, first compound 0.1 µM): 53.7% | viability, T/C [6]: 52.4% | viability, T/C (second compound 0.316 µM, first compound 1 µM): 48.5% | viability, T/C (second compound 0.316 µM, first compound 3.16 µM): 55.1% | viability, T/C (second compound 0.316 µM, first compound 10 µM): 54.3% | viability, T/C [7]: 32.6% | viability, T/C (second compound 1 µM, first compound 0.1 µM): 40.8% | viability, T/C [8]: 40.7% | viability, T/C (second compound 1 µM, first compound 1 µM): 31.8% | viability, T/C (second compound 1 µM, first compound 3.16 µM): 42.1% | viability, T/C (second compound 1 µM, first compound 10 µM): 37.2% | viability, T/C [9]: 17.9% | viability, T/C (second compound 3.16 µM, first compound 0.1 µM): 10.5% | viability, T/C [10]: 17.6% | viability, T/C (second compound 3.16 µM, first compound 1 µM): 8.94% | viability, T/C (second compound 3.16 µM, first compound 3.16 µM): 15.1% | viability, T/C (second compound 3.16 µM, first compound 10 µM): 17.2% | viability, T/C [11]: 0.18% | viability, T/C (second compound 10 µM, first compound 0.1 µM): 0.17% | viability, T/C [12]: 0.23% | viability, T/C (second compound 10 µM, first compound 1 µM): 0.19% | viability, T/C (second compound 10 µM, first compound 3.16 µM): 0.2% | viability, T/C (second compound 10 µM, first compound 10 µM): 0.18%

Cn1ncnc1[C@H]1c2n[nH]c(=O)c3cc(F)cc(c23)N[C@@H]1c1ccc(F)cc1 + CN(C)c1ccc(Nc2c3ccc(NC(=O)CCN4CCCC4)cc3nc3cc(NC(=O)CCN4CCCC4)ccc23)cc1
IC50 (second compound 0.0316 µM): > 316 nM | IC50 (second compound 0.1 µM): > 316 nM | IC50 (second compound 0.316 µM): > 316 nM | IC50 (second compound 1 µM): > 316 nM | IC50 (second compound 3.16 µM): > 316 nM | IC50 (second compound 10 µM): < 0.999 nM | viability, T/C [13]: 86.2% | viability, T/C [14]: 92.3% | viability, T/C [15]: 85.7% | viability, T/C [1]: 78.1% | viability, T/C [16]: 74.2% | viability, T/C [2]: 74.6% | viability, T/C [17]: 97.5% | viability, T/C [18]: 77.7% | viability, T/C [19]: 90.6% | viability, T/C [3]: 92.1% | viability, T/C [20]: 88.2% | viability, T/C [4]: 76.7% | viability, T/C [21]: 97.5% | viability, T/C [22]: 73.2% | viability, T/C [23]: 84.1% | viability, T/C [5]: 79.1% | viability, T/C [24]: 70.7% | viability, T/C [6]: 62.2% | viability, T/C [25]: 96.7% | viability, T/C [26]: 92.1% | viability, T/C [27]: 84.5% | viability, T/C [7]: 70.7% | viability, T/C [28]: 83.2% | viability, T/C [8]: 68.9% | viability, T/C [29]: 70.4% | viability, T/C [30]: 77.2% | viability, T/C [31]: 56.1% | viability, T/C [9]: 62.4% | viability, T/C [32]: 78.9% | viability, T/C [10]: 48.2% | viability, T/C [33]: 31.3% | viability, T/C [34]: 35.4% | viability, T/C [35]: 44.2% | viability, T/C [11]: 26.7% | viability, T/C [36]: 27.4% | viability, T/C [12]: 35.3%

Cn1ncnc1[C@H]1c2n[nH]c(=O)c3cc(F)cc(c23)N[C@@H]1c1ccc(F)cc1 + Cc1[nH]c2ccc(F)cc2c1-c1nc2c3cccnc3c3ncccc3c2[nH]1
IC50 (second compound 0.0316 µM): > 316 nM | IC50 (second compound 0.1 µM): > 316 nM | IC50 (second compound 0.316 µM): > 316 nM | IC50 (second compound 1 µM): > 316 nM | IC50 (second compound 3.16 µM): < 0.999 nM | IC50 (second compound 10 µM): < 0.999 nM | viability, T/C [13]: 125% | viability, T/C [14]: 95.4% | viability, T/C [15]: 87.6% | viability, T/C [1]: 77.8% | viability, T/C [16]: 93.9% | viability, T/C [2]: 87% | viability, T/C [17]: 79.2% | viability, T/C [18]: 83.9% | viability, T/C [19]: 114% | viability, T/C [3]: 101% | viability, T/C [20]: 99.5% | viability, T/C [4]: 80.9% | viability, T/C [21]: 86.9% | viability, T/C [22]: 110% | viability, T/C [23]: 92.1% | viability, T/C [5]: 71.7% | viability, T/C [24]: 82.9% | viability, T/C [6]: 68.5% | viability, T/C [25]: 60.2% | viability, T/C [26]: 67.9% | viability, T/C [27]: 94.8% | viability, T/C [7]: 72.2% | viability, T/C [28]: 60.3% | viability, T/C [8]: 56.2% | viability, T/C [29]: 43.7% | viability, T/C [30]: 37.5% | viability, T/C [31]: 25.6% | viability, T/C [9]: 38.6% | viability, T/C [32]: 31.8% | viability, T/C [10]: 41.7% | viability, T/C [33]: 18.4% | viability, T/C [34]: 32.4% | viability, T/C [35]: 31.2% | viability, T/C [11]: 22.7% | viability, T/C [36]: 22.6% | viability, T/C [12]: 22.1%

Cn1ncnc1[C@H]1c2n[nH]c(=O)c3cc(F)cc(c23)N[C@@H]1c1ccc(F)cc1 + Cc1cnc(CNC(=O)c2c(=O)c3ccc(N4CCCN(C)CC4)nc3n3c2sc2ccccc23)cn1
IC50 (second compound 0.0316 µM): > 316 nM | IC50 (second compound 0.1 µM): > 316 nM | IC50 (second compound 0.316 µM): > 316 nM | IC50 (second compound 1 µM): < 0.999 nM | IC50 (second compound 3.16 µM): < 0.999 nM | IC50 (second compound 10 µM): < 0.999 nM | viability, T/C [13]: 82.1% | viability, T/C [14]: 60.3% | viability, T/C [15]: 66.2% | viability, T/C [1]: 60.9% | viability, T/C [16]: 72.1% | viability, T/C [2]: 62.9% | viability, T/C [17]: 59.5% | viability, T/C [18]: 60.5% | viability, T/C [19]: 47.1% | viability, T/C [3]: 57% | viability, T/C [20]: 59.4% | viability, T/C [4]: 62.4% | viability, T/C [21]: 58.9% | viability, T/C [22]: 57.8% | viability, T/C [23]: 55.4% | viability, T/C [5]: 53.1% | viability, T/C [24]: 49.6% | viability, T/C [6]: 53.4% | viability, T/C [25]: 42.4% | viability, T/C [26]: 46.8% | viability, T/C [27]: 59.2% | viability, T/C [7]: 49.8% | viability, T/C [28]: 47.1% | viability, T/C [8]: 46.9% | viability, T/C [29]: 17.9% | viability, T/C [30]: 18.4% | viability, T/C [31]: 12.7% | viability, T/C [9]: 23% | viability, T/C [32]: 20.4% | viability, T/C [10]: 11.9% | viability, T/C [33]: 0.24% | viability, T/C [34]: 11.3% | viability, T/C [35]: 0.24% | viability, T/C [11]: 0.21% | viability, T/C [36]: 0.18% | viability, T/C [12]: 9.04%
